According to ChEMBL document CHEMBL5344406, “1,2,3-Triazole-containing hybrids with potential antibacterial activity against ESKAPE pathogens” (2022):
≈ marks a conversion by molar mass, not a printed value.

Tests used:
Type in all cases: functional
Staphylococcus aureus [1] = test: Antibacterial activity against Staphylococcus aureus ATCC 25923 assessed as bacterial growth inhibition incubated for 18 to 20 hrs by broth microdilution method; details: time 18-20 hrs
Escherichia coli [2] = test: Antibacterial activity against Escherichia coli ATCC 25922 assessed as bacterial growth inhibition incubated for 18 to 20 hrs by broth microdilution method; details: time 18-20 hrs
Klebsiella pneumoniae = test: Antibacterial activity against Klebsiella pneumoniae ATCC 29665 assessed as bacterial growth inhibition incubated for 18 to 20 hrs by broth microdilution method; details: time 18-20 hrs
Acinetobacter baumannii = test: Antibacterial activity against Acinetobacter baumannii ATCC 19606 assessed as bacterial growth inhibition incubated for 18 to 20 hrs by broth microdilution method; details: time 18-20 hrs
Pseudomonas aeruginosa [3] = test: Antibacterial activity against Pseudomonas aeruginosa ATCC 27853 assessed as bacterial growth inhibition incubated for 18 to 20 hrs by broth microdilution method; details: time 18-20 hrs
Staphylococcus aureus [4] = test: Antibacterial activity against Staphylococcus aureus ATCC 43300 assessed as bacterial growth inhibition incubated for 24 hrs by broth microdilution method
Staphylococcus aureus [5] = test: Antibacterial activity against Staphylococcus aureus ATCC 29213 assessed as bacterial growth inhibition incubated for 24 hrs by broth microdilution method
Staphylococcus aureus [6] = test: Antibacterial activity against Staphylococcus aureus clinical isolate AD3 assessed as bacterial growth inhibition incubated for 24 hrs by broth microdilution method
Staphylococcus aureus [7] = test: Antibacterial activity against Staphylococcus aureus clinical isolate 144 assessed as bacterial growth inhibition incubated for 24 hrs by broth microdilution method
Escherichia coli [8] = test: Antibacterial activity against Escherichia coli assessed as bacterial growth inhibition by serial dilution method
Pseudomonas aeruginosa [9] = test: Antibacterial activity against Pseudomonas aeruginosa assessed as bacterial growth inhibition by serial dilution method
Bacillus subtilis = test: Antibacterial activity against Bacillus subtilis assessed as bacterial growth inhibition by serial dilution method
Staphylococcus aureus [10] = test: Antibacterial activity against Staphylococcus aureus assessed as bacterial growth inhibition by serial dilution method
[11] = tested on: Staphylococcus epidermidis; test: Antibacterial activity against Staphylococcus epidermidis assessed as bacterial growth inhibition by serial dilution method
Escherichia coli [12] = test: Antibacterial activity against Escherichia coli assessed as bacterial growth inhibition
Pseudomonas aeruginosa [13] = test: Antibacterial activity against Pseudomonas aeruginosa assessed as bacterial growth inhibition

O=C(O)c1cn(C2CC2)c2cc(N3CCN(Cc4cn(CC(=O)N5CCC[C@H]5C(=O)O)nn4)CC3)c(F)cc2c1=O
MIC (Staphylococcus aureus [1]): 0.25 µg/mL (≈ 0.44 µM) | MIC (Escherichia coli [2]): 0.25 µg/mL (≈ 0.44 µM) | MIC (Klebsiella pneumoniae): 0.25 µg/mL (≈ 0.44 µM) | MIC (Acinetobacter baumannii): 0.25 µg/mL (≈ 0.44 µM) | MIC (Pseudomonas aeruginosa [3]): 0.25 µg/mL (≈ 0.44 µM)

C=C[C@]1(C)C[C@@H](OC(=O)Cn2cc(CN3CCN(c4ccc([N+](=O)[O-])cc4)CC3)nn2)[C@@]2(C)[C@@H]3C(=O)CC[C@@]3(CC[C@@H]2C)[C@@H](C)[C@@H]1O
MIC (Staphylococcus aureus [4]): 0.5 µg/mL (≈ 0.771 µM) | MIC (Staphylococcus aureus [5]): 0.5 µg/mL (≈ 0.771 µM) | MIC (Staphylococcus aureus [6]): 0.5 µg/mL (≈ 0.771 µM) | MIC (Staphylococcus aureus [7]): 0.5 µg/mL (≈ 0.771 µM)

NC(=O)N/N=C/c1ccccc1OCc1cn(-c2ccc(F)cc2)nn1
MIC (Escherichia coli [8]): 25 µg/mL (≈ 70.6 µM) | MIC (Pseudomonas aeruginosa [9]): 25 µg/mL (≈ 70.6 µM) | MIC (Bacillus subtilis): 25 µg/mL (≈ 70.6 µM) | MIC (Staphylococcus aureus [10]): 25 µg/mL (≈ 70.6 µM) | MIC [11]: 25 µg/mL (≈ 70.6 µM)

NC(=S)N/N=C/c1ccc(OCc2cn(Cc3ccc(Br)cc3)nn2)cc1
MIC (Escherichia coli [8]): 6.25 µg/mL (≈ 14 µM) | MIC (Pseudomonas aeruginosa [9]): 6.25 µg/mL (≈ 14 µM) | MIC (Bacillus subtilis): 6.25 µg/mL (≈ 14 µM) | MIC (Staphylococcus aureus [10]): 6.25 µg/mL (≈ 14 µM) | MIC [11]: 6.25 µg/mL (≈ 14 µM)

COc1ccc(Cn2cc(COc3ccc(/C=C/C(=O)c4c(O)cc(C)oc4=O)cc3)nn2)cc1
MIC (Escherichia coli [12]): 1.56 µg/mL (≈ 3.29 µM) | MIC (Pseudomonas aeruginosa [13]): 1.56 µg/mL (≈ 3.29 µM)

O=C(/C=C/c1ccc(OCc2cn(Cc3ccccc3Br)nn2)cc1)c1ccc(Br)cc1
MIC (Escherichia coli [12]): 6.25 µg/mL (≈ 11.3 µM) | MIC (Pseudomonas aeruginosa [13]): 6.25 µg/mL (≈ 11.3 µM)

O=C(/C=C/c1ccc(OCc2cn(Cc3cccc(Br)c3)nn2)cc1)c1ccc([N+](=O)[O-])cc1
MIC (Escherichia coli [12]): 6.25 µg/mL (≈ 12 µM) | MIC (Pseudomonas aeruginosa [13]): 6.25 µg/mL (≈ 12 µM)

O=C(Cn1cc(CN2CCN(c3cc4c(cc3F)c(=O)c(C(=O)O)cn4C3CC3)CC2)nn1)N[C@@H](Cc1cc(=O)[nH]c2ccccc12)C(=O)O
MIC (Staphylococcus aureus [1]): 0.25 µg/mL (≈ 0.365 µM) | MIC (Escherichia coli [2]): 0.25 µg/mL (≈ 0.365 µM) | MIC (Klebsiella pneumoniae): 0.25 µg/mL (≈ 0.365 µM) | MIC (Acinetobacter baumannii): 0.25 µg/mL (≈ 0.365 µM) | MIC (Pseudomonas aeruginosa [3]): 0.25 µg/mL (≈ 0.365 µM)

COC(=O)[C@H](C)NC(=O)c1cc(=O)n(Cc2cn(C3O[C@H]4OC(C)(C)O[C@H]4[C@@H]4OC(C)(C)OC[C@@H]34)nn2)c2ccccc12 (stereo not given in full)
MIC (Escherichia coli [12]): 9.75 µg/mL (≈ 16.3 µM)

O=C(Cn1cc(CN2CCN(c3cc4c(cc3F)c(=O)c(C(=O)O)cn4C3CC3)CC2)nn1)N[C@@H](Cc1ccccc1C(F)(F)F)C(=O)O
MIC (Staphylococcus aureus [1]): 0.25 µg/mL (≈ 0.365 µM) | MIC (Escherichia coli [2]): 0.25 µg/mL (≈ 0.365 µM) | MIC (Klebsiella pneumoniae): 0.25 µg/mL (≈ 0.365 µM) | MIC (Acinetobacter baumannii): 0.25 µg/mL (≈ 0.365 µM) | MIC (Pseudomonas aeruginosa [3]): 0.25 µg/mL (≈ 0.365 µM)

O=C(Cn1cc(CN2CCN(c3cc4c(cc3F)c(=O)c(C(=O)O)cn4C3CC3)CC2)nn1)N[C@@H](Cc1ccccc1)C(=O)O
MIC (Staphylococcus aureus [1]): 0.25 µg/mL (≈ 0.405 µM) | MIC (Escherichia coli [2]): 0.25 µg/mL (≈ 0.405 µM) | MIC (Klebsiella pneumoniae): 0.25 µg/mL (≈ 0.405 µM) | MIC (Acinetobacter baumannii): 0.25 µg/mL (≈ 0.405 µM) | MIC (Pseudomonas aeruginosa [3]): 0.25 µg/mL (≈ 0.405 µM)

NC(=S)N/N=C/c1cccc(OCc2cn(Cc3ccc(Br)cc3)nn2)c1
MIC (Escherichia coli [8]): 6.25 µg/mL (≈ 14 µM) | MIC (Pseudomonas aeruginosa [9]): 6.25 µg/mL (≈ 14 µM) | MIC (Bacillus subtilis): 6.25 µg/mL (≈ 14 µM) | MIC (Staphylococcus aureus [10]): 6.25 µg/mL (≈ 14 µM) | MIC [11]: 6.25 µg/mL (≈ 14 µM)

O=C(Cn1cc(CN2CCN(c3cc4c(cc3F)c(=O)c(C(=O)O)cn4C3CC3)CC2)nn1)N[C@@H](CSc1ccccc1)C(=O)O
MIC (Staphylococcus aureus [1]): 0.25 µg/mL (≈ 0.385 µM) | MIC (Escherichia coli [2]): 0.25 µg/mL (≈ 0.385 µM) | MIC (Klebsiella pneumoniae): 0.25 µg/mL (≈ 0.385 µM) | MIC (Acinetobacter baumannii): 0.25 µg/mL (≈ 0.385 µM) | MIC (Pseudomonas aeruginosa [3]): 0.25 µg/mL (≈ 0.385 µM)

O=C(Nc1ccc(F)cc1)OCc1cn(Cc2ccc(Br)cc2)nn1
MIC (Escherichia coli [8]): 3.12 µg/mL (≈ 7.7 µM) | MIC (Pseudomonas aeruginosa [9]): 3.12 µg/mL (≈ 7.7 µM) | MIC (Bacillus subtilis): 3.12 µg/mL (≈ 7.7 µM) | MIC [11]: 3.12 µg/mL (≈ 7.7 µM)

C=CCOc1ccc(C[C@H](NC(=O)Cn2cc(CN3CCN(c4cc5c(cc4F)c(=O)c(C(=O)O)cn5C4CC4)CC3)nn2)C(=O)O)cc1
MIC (Staphylococcus aureus [1]): 0.25 µg/mL (≈ 0.371 µM) | MIC (Escherichia coli [2]): 0.25 µg/mL (≈ 0.371 µM) | MIC (Klebsiella pneumoniae): 0.25 µg/mL (≈ 0.371 µM) | MIC (Acinetobacter baumannii): 0.25 µg/mL (≈ 0.371 µM) | MIC (Pseudomonas aeruginosa [3]): 0.25 µg/mL (≈ 0.371 µM)
